Reference: patent US7192728B2, “Screening assays for agents that alter inhibitor of apoptosis (IAP) protein regulation of caspase activity” (The Burnham Institute, priority 1997, dated 2007)

Key:
[1] = tested on: pro-caspase-3 processing induced by cytochrome c; assay: Cytochrome c-induced processing of pro-caspase-3 in 293 cytosolic extracts; type: biochemical, human; conditions: immunoblot
Description: Samples were incubated at 30° C. for 30 minutes. Extracts were then separated by SDS-PAGE electrophoresis, transferred to nitrocellulose and incubated with antisera specific for the zymogen and large subunit of caspase-3.
Briefly, cells were washed with ice-cold buffer A (20 mM Hepes [pH 7.5], 10 mM KCl, 1.5 mM MgCl2, 1 mM EDTA, and 1 mM DTT) and suspended in 1 volume of buffer A. Cells were incubated on ice for 20 minutes and then disrupted by passage through a 26 gauge needle 15 times. Cell extracts were clarified by centrifugation at 16,000×g for 30 minutes and the resulting supernatants were stored at −80° C. For initiating caspase activation, either 10 μM horse heart cytochrome c (Sigma, Inc.) together with 1 mM dATP, or 100 nM of purified recombinant caspase-8, was added to extracts (10–15 mg total protein/ml).

[2] = tested on: DEVD-pNA hydrolysis activity in Jurkat T cell cytosolic extracts; assay: Cytochrome c/dATP-induced caspase activation (DEVD-pNA hydrolysis) in Jurkat T cell cytosolic extracts; type: biochemical
Description: Cells were washed with ice cold buffer A (20 mM Hepes (pH 7.5), 10 mM KCl, 1.5 mM MgCl2, 1 mM EDTA, 1 mM DTT and 0.1 mM PMSF) and suspended in 1 vol buffer A, then incubated on ice for 20 min. 293 cells were disrupted by passage 15× through a 26 gauge needle and Jurkat T cells were disrupted by dounce homogenization in 2 ml using 15 strokes with a pestle B. Cell extracts (10–15 mg total protein/ml) were clarified by centrifugation at 16,000×g for 30 min, then the NaCl concentration was increased by 50 mM. Cytosolic fractions were used immediately or stored frozen at −80° C.
Caspase activity was assayed by release of either 7-amino-4-trifluoromethyl-coumarin (AFC) or p-nitroanilide (pNA) from benzylyoxycarbonyl-DEVD (SEQ ID NO: 2) or benzylyoxycarbonyl-YVAD (SEQ ID NO: 3) synthetic peptides using a Molecular Devices Spectromax 340 for AFC labeled peptides or Perkin/Elmer LS50B for pNA labeled peptides (see Example II; see, also, Zhou et al., supra, 1997). Cytosolic extracts from 293 cells or Jurkat T cells were used directly (negative control) or were treated with 1 μM cytochrome c and 1 mM dATP or with cytochrome c, dATP and 0.2 μM GST-XIAP. Additional control reactions were performed by substituting 2 μM GST-Bcl-2, GST-Bax, GST-NM23 or GST-CD40 cytosolic domain, or 5 μM His6-S5a protein for GST-XIAP. DEVD-pNA hydrolysis was measured at various times and multiple experiments were performed using several different GST-XIAP preparations.

293 cells = assay: Fas-induced apoptosis in transfected 293 cells; type: cell-based, human; conditions: co-transfection of Fas and myc-XIAP; 36 hrs
Description: For determination of apoptotic activity in FIG. 2B, 293 cells in 60 mm dishes were transiently transfected with 6 μg of pcDNA-myc-tag control or pcDNA-myc-XIAP plasmids, and either 2 ug of pCMV5 or pCMV5-Fas plasmid DNA. All transfections included 0.5 ug of pEGFP as a marker and were normalized for total DNA content. The percentage of GFP positive cells with apoptotic morphology and nuclear changes consistent with apoptosis were enumerated by DAPI-staining (mean+SD; n=3) at 36 hrs. Alternatively, cell lysates were prepared, and immunoprecipitates were collected using anti-myc monoclonal antibody with protein-G-Sepharose, followed by SDS-PAGE immunoblot assay using anti-caspase-3 antiserum (Krajewska et al., supra 1997) to reveal the XIAP-associated p24 isoform of partially processed caspase-3. Lanes correspond to cells transfected with: (1) control plasmid; (2) myc-XIAP; (3) Fas plus myc-control; and (4) Fas plus myc-XIAP.
Apoptotic assays were performed as follows. 293 cells were transfected as described above, except that 0.5 μg pEGFP plasmid DNA was included.

293T cells = assay: Bax-induced apoptosis and caspase activation in transfected 293T cells; type: cell-based, human
Description: N-benzyloxycarbonyl-Val-Ala-Asp fluoromethylketone (zVAD-fmk; 50 μM) (Bachem Calif.; Torrance, Calif.) was added immediately after transfection of the Bax plasmid. Transfection efficiency was uniformly 80–90%, as determined by X-Gal staining following cotransfection with pCMV-βGal.
Cells were maintained in culture for 24 hr, then floating and attached cells were harvested and an aliquot was removed and the percent of dead cells was determined by either trypan blue or propidium iodide (PI) dye exclusion assay. A second aliquot was used to assess the percentage of apoptotic cells with subdiploid DNA content by FACS analysis of PI stained, ethanol fixed cells. The remaining cell pellets were lysed in 10 mM HEPES (pH 7.5), 142 mM KCl, 1 mM EGTA, 1 mM DTT, 0.2% NP-40, 0.1 mM PMSF and used for immunoblot analysis or for protease assays.

Q: How did the “concentration that effectively abolished cytochrome c-induced processing of pro-caspase-3” value [1] turn out when “XIAP: X chromosome linked inhibitor of apoptosis protein (Genbank U32974), used mostly as recombinant GST fusion or expressed from plasmid” was run?
A: 0.1 to 0.2 µM

Q: What about the “DEVD-pNA hydrolysis, ΔA405 after 15 min” value ([2]; untreated ≈0.02) of the same substance?
A: ≈ 0.025

Q: And the “DEVD-pNA hydrolysis, ΔA405 after 20 min” value ([2]; untreated ≈0.025)?
A: ≈ 0.03

Q: And the “Fas-induced apoptosis (in words)” value (293 cells)?
A: markedly suppressed

Q: And the “apoptotic cells (PI staining) in Bax expressing cells” value (293T cells; 24 hr, Bax alone about 25%, zVAD-fmk 50 μM)?
A: less than 10%

Q: What about the “Bax-induced generation of caspase activity and pro-caspase-3 processing (in words)” value (293T cells; DEVD-AFC hydrolysis and immunoblot of cell extracts) of the same substance?
A: markedly inhibited

Q: And the “apoptotic cells (PI staining)” value (293T cells; XIAP expressed without Bax, control plasmid about 2%)?
A: about 5%
